From US20250221410A1, “SUBSTITUTED 2-C-AZINES AND SALTS THEREOF, AND USE THEREOF AS HERBICIDAL ACTIVE SUBSTANCES” (BAYER AKTIENGESELLSCHAFT, priority 2022, published 2025)

What was measured:
Type in all cases: in vivo
[1] = tested on: AMARE: Amaranthus retroflexus; test: Post-emergence herbicidal efficacy at 80 g/ha, AMARE; conditions: visual rating about 3 weeks after treatment vs untreated controls
Description: Seeds of monocotyledonous and dicotyledonous weeds and crop plants were placed in sandy loam in plastic or organic planting pots, covered with soil and cultivated in a greenhouse under controlled growth conditions. 2 to 3 weeks after sowing, the test plants were treated at the one-leaf stage. The compounds of the invention, formulated in the form of wettable powders (WP) or as emulsion concentrates (EC), were then sprayed onto the green parts of the plants as aqueous suspension or emulsion with addition of 0.5% additive at a water application rate of 600 l/ha (converted). After the test plants had been kept in the greenhouse under optimum growth conditions for about 3 weeks, the activity of the preparations was rated visually in comparison to untreated controls. For example, 100% activity=the plants have died, 0% activity=like control plants. Tables B1 to B10 below show the effects of selected compounds of the general formula (I) according to Table 1 on various harmful plants and an application rate corresponding to 80 g/ha, which were obtained by the experimental procedure mentioned above.

[2] = tested on: AMARE: Amaranthus retroflexus; test: Pre-emergence herbicide efficacy at 80 g/ha, AMARE; conditions: scored visually after about 3 weeks
Text: Seeds of monocotyledonous and dicotyledonous weed plants and crop plants were placed in plastic or organic planting pots and covered with soil. The compounds of the invention, formulated in the form of wettable powders (WP) or as emulsion concentrates (EC), were then applied to the surface of the covering soil as aqueous suspension or emulsion with addition of 0.5% additive at a water application rate equivalent to 600 l/ha. After the treatment, the pots were placed in a greenhouse and kept under good growth conditions for the test plants. After about 3 weeks, the efficacy of the preparations was scored visually in comparison with untreated controls as percentages. For example, 100% activity=the plants have died, 0% activity=like control plants. Tables D1 to D12 below show the effects of selected compounds of the general formula (I) according to Table 1 on various harmful plants and an application rate corresponding to 80 g/ha, which were obtained by the experimental procedure mentioned above.

POAAN: Poa annua [3] = test: Post-emergence herbicidal efficacy at 1280 g/ha, POAAN; conditions: visual rating about 3 weeks after treatment vs untreated controls
Description: (§1) Seeds of mono- and dicotyledonous weed plants were placed in plastic pots in sandy loam soil (doubly sown with in each case one species of mono- or dicotyledonous weed plants per pot), covered with soil and cultivated in a greenhouse under controlled growth conditions. 2 to 3 weeks after sowing, the test plants were treated at the one-leaf stage. The compounds of the invention, formulated in the form of wettable powders (WP) or as emulsion concentrates (EC), were applied to the green parts of the plants as aqueous suspension or emulsion with addition of 0.5% additive at a water application rate equivalent to 600 litres per hectare. After the test plants had been kept in the greenhouse under optimum growth conditions for about 3 weeks, the activity of the preparations was rated visually in comparison to untreated controls. For example, 100% activity=the plants have died, 0% activity=like control plants. Tables A1 to A12 below show the effects of selected compounds of the general formula (I) according to Table 1 on various harmful plants and at an application rate corresponding to 1280 g/ha, which were obtained by the trial procedure specified above.

STEME: Stellaria media [4] = test: Post-emergence herbicidal efficacy at 1280 g/ha, STEME; conditions: visual rating about 3 weeks after treatment vs untreated controls
Description: as §1

VERPE: Veronica persica [5] = test: Post-emergence herbicidal efficacy at 1280 g/ha, VERPE; conditions: visual rating about 3 weeks after treatment vs untreated controls
Description: as §1

[6] = tested on: AMARE: Amaranthus retroflexus; test: Pre-emergence herbicide efficacy at 1280 g/ha, AMARE; conditions: visual scoring after about 3 weeks vs untreated controls
Text: (§2) Seeds of mono- and dicotyledonous weed plants were placed in plastic pots in sandy loam soil (doubly sown with one species each of mono- or dicotyledonous weed plants per pot) and covered with soil. The compounds of the invention, formulated in the form of wettable powders (WP) or as emulsion concentrates (EC), were then applied to the surface of the covering soil as aqueous suspension or emulsion with addition of 0.5% additive at a water application rate of 600 litres per hectare (converted). After the treatment, the pots were placed in a greenhouse and kept under good growth conditions for the test plants. After about 3 weeks, the efficacy of the preparations was scored visually in comparison with untreated controls as percentages. For example, 100% activity=the plants have died, 0% activity=like control plants. Tables C1 to C12 below show the effects of selected compounds of the general formula (I) according to Table 1 on various harmful plants and at an application rate corresponding to 1280 g/ha, which were obtained by the trial procedure specified above.

POAAN: Poa annua [7] = test: Pre-emergence herbicide efficacy at 1280 g/ha, POAAN; conditions: visual scoring after about 3 weeks vs untreated controls
Text: as §2

SETVI: Setaria viridis [8] = test: Pre-emergence herbicide efficacy at 1280 g/ha, SETVI; conditions: visual scoring vs untreated controls
Text: as §2

STEME: Stellaria media [9] = test: Pre-emergence herbicide efficacy at 1280 g/ha, STEME; conditions: visual scoring vs untreated controls
Text: as §2

VERPE: Veronica persica [10] = test: Pre-emergence herbicide efficacy at 1280 g/ha, VERPE; conditions: visual scoring vs untreated controls
Text: as §2

[11] = tested on: AMARE: Amaranthus retroflexus; test: Post-emergence herbicidal efficacy at 1280 g/ha, AMARE; conditions: rated visually after about 3 weeks vs untreated controls, 100% = plants have died, 0% = like control plants
Description: as §1

SETVI: Setaria viridis [12] = test: Post-emergence herbicidal efficacy at 1280 g/ha, SETVI; conditions: visual rating about 3 weeks after treatment vs untreated controls
Description: as §1

[13] = tested on: DIGSA: Digitaria sanguinalis; test: Pre-emergence herbicide efficacy at 1280 g/ha, DIGSA; conditions: visual scoring after about 3 weeks vs untreated controls
Text: as §2

KCHSC: Kochia scoparia [14] = test: Pre-emergence herbicide efficacy at 1280 g/ha, KCHSC; conditions: visual scoring after about 3 weeks vs untreated controls
Text: as §2

[15] = tested on: ABUTH: Abutilon theophrasti; test: Post-emergence herbicidal efficacy at 1280 g/ha, ABUTH; conditions: rated visually after about 3 weeks vs untreated controls, 100% = plants have died, 0% = like control plants
Description: as §1

KCHSC: Kochia scoparia [16] = test: Post-emergence herbicidal efficacy at 1280 g/ha, KCHSC; conditions: visual rating about 3 weeks after treatment vs untreated controls
Description: as §1

[17] = tested on: ABUTH: Abutilon theophrasti; test: Pre-emergence herbicide efficacy at 1280 g/ha, ABUTH; conditions: visual scoring after about 3 weeks vs untreated controls
Text: as §2

[18] = tested on: ECHCG: Echinochloa crus-galli; test: Pre-emergence herbicide efficacy at 1280 g/ha, ECHCG; conditions: visual scoring after about 3 weeks vs untreated controls
Text: as §2

Structure (SMILES)	Post-emergence efficacy against AMARE [1] [%]	Pre-emergence efficacy against AMARE in % [2] [%]	Post-emergence efficacy against POAAN (POAAN: Poa annua [3]) [%]	Post-emergence efficacy against STEME (STEME: Stellaria media [4]) [%]	Post-emergence efficacy against VERPE (VERPE: Veronica persica [5]) [%]	Pre-emergence efficacy against AMARE [6] [%]	Pre-emergence efficacy against POAAN (POAAN: Poa annua [7]) [%]	Pre-emergence efficacy against SETVI in % (SETVI: Setaria viridis [8]) [%]	Pre-emergence efficacy against STEME in % (STEME: Stellaria media [9]) [%]	Pre-emergence efficacy against VERPE in % (VERPE: Veronica persica [10]) [%]	Post-emergence efficacy at 1280 g/ha against AMARE in % [11] [%]	Post-emergence efficacy against SETVI (SETVI: Setaria viridis [12]) [%]	Pre-emergence efficacy against DIGSA [13] [%]	Pre-emergence efficacy against KCHSC (KCHSC: Kochia scoparia [14]) [%]	Post-emergence efficacy at 1280 g/ha against ABUTH in % [15] [%]	Post-emergence efficacy against KCHSC (KCHSC: Kochia scoparia [16]) [%]	Pre-emergence efficacy against ABUTH [17] [%]	Pre-emergence efficacy against ECHCG [18] [%]
O=S(=O)(CCCC(F)(F)F)Oc1c(F)cccc1Cc1ncc(F)cn1 [Example 1-15]	90																	
O=S(=O)(CCC(F)(F)F)Oc1c(F)cccc1Cc1ncc(F)cn1 [Example 1-17]	90	80																
O=S(=O)(CCCC(F)(F)F)Oc1c(Cl)cccc1Cc1ncc(Cl)cn1 [Example 1-18]	90																	
O=S(=O)(CCC(F)(F)F)Oc1c(Cl)cccc1Cc1ncc(Cl)cn1 [Example 1-20]	90																	
COc1cccc(Cc2ncc(Cl)cn2)c1Oc1ccc(F)cc1 [Example 1-33]			90	90	90	100	100	100	90	100								
Fc1cccc(OCCCC(F)(F)F)c1Cc1ncc(Cl)cn1 [Example 1-60]					100		90			90								
Fc1ccc(Oc2ccccc2Cc2ccc(Cl)cn2)cc1 [Example 1-74]			90			100	100	100			90	90	100	90				
Fc1ccc(Cc2ccccc2Cc2ncc(F)cn2)cc1 [Example 1-95]			100	100	90	100	90		100	100	100	90	90	90	100	100	100	90
Fc1ccc(Oc2ccccc2Cc2ncccn2)cc1 [Example 1-98]			90	90	100	100	90	90	90	90	100		100			90	100	90
Fc1ccc(Cc2ccccc2Oc2ncc(Cl)cc2F)nc1 [Example 1-103]			100	100	100	100	90	100	100	90	100	90	90		100	90	100	90
Fc1ccc(Sc2ccccc2Cc2ccc(Cl)cn2)cc1 [Example 1-105]			90	90	90	100	100		90	100	90				90	90		90
Fc1ccc(-c2ccccc2Cc2ncc(Cl)cc2F)cc1F [Example 1-127]			100	100	100	100	90	100	90	90	100	90	90	90	100	100		
[O-][S+](c1ccc(F)cc1)c1ccccc1Cc1ncc(Cl)cn1 (stereo not shown) [Example 1-142]	80																	
O=S(=O)(CCC(F)(F)F)c1ccccc1Cc1ncc(F)cn1 [Example 1-150]	80																	
